The conditions of series [1]: Tris buffer (pH 7.4) and Borate buffer (pH 7.4), room temperature.
The subject of the next series is MiaPaca-2 cells. Kind of series: Comparative in vivo study, orthotopic MiaPaca-2 pancreatic tumor in nude mice. As to conditions: i.p. daily 60 days. Here is the method: Thirty nude mice of the strain athymic nu/nu were obtained from National Cancer Institute (NCI) (Rockville, Md.) and kept in a RAR facility. The mice were anaesthetized in accordance with the recommendations of the RAR facility using ketamine 75-200 mg/kg and xylazine 4-8 mg/kg. A small incision 3 mm was made on the left side of the abdominal wall and the spleen was pulled out with forceps far enough to expose and access the pancreas. MiaPaca-2 cell medium was prepared and kept on ice until delivery into the mice. Into each of the mice, 1 million MiaPaca-2 cells suspended in MATRIGEL™ (available from Becton-Dickinson Corporation, Franklin Lakes, N.J.) was injected into the tail of the pancreas (identified by its anatomical attachment with the spleen) using a Hamilton syringe. Following delivery of the cells, the syringe was held steady for an additional 5-10 seconds to permit the MATRIGEL™ to set. The spleen was replaced back into the abdominal cavity, and the abdominal wall was closed by vicryl suture in a continuous manner. The skin was apposed and closed using wound clips. The mice were then transferred to a heating pad until fully recovered before being returned to the cage. Post-operative pain medication (buprenonorphine 0.1 mg/kg) was administered intraperitoneally immediately after full recovery from anaesthesia to prevent respiratory depression and then administered every 12 hours for 2 days. The wound clips were removed from the mice after 7 days of surgery.
The mice were then randomized into 3 groups, each group having 10 mice. The groups were as follows: control group, triptolide group and the triptolide prodrug (compound 1) group. The control group consisted of mice that were injected intraperitoneally with vehicle DMSO.
The triptolide group subjects were injected with 0.2 mg/kg of triptolide dissolved in DMSO and diluted with phosphate buffered saline to a volume of 100 the intraperitoneal injections being daily over a period of 60 days. The compound 1 subjects were intraperitoneally injected daily for 60 days with 0.28 mg/kg of the compound dissolved in phosphate buffered saline diluted to a volume of 100 μl.
The mice were euthanized under anaesthesia at the conclusion of the 60 day treatments. Samples were collected (blood, lung, spleen, liver, kidneys and tumor tissue), and tumor volume and weight were measured and compared among the different groups. Observations were made on the loco-regional growth and cancer growth.

Series [2] relates to alkaline phosphatase (from bovine intestinal mucosa, Type VII-S). Kind of series: In vitro enzymatic conversion (hydrolysis) by alkaline phosphatase. The series is classed as in vitro ADME. As to conditions: alkaline phosphatase in glycine buffer (pH 9.8), FIG. 3. The procedure: (§1) Compound 1 is converted into the active triptolide form by action of the enzyme alkaline phosphatase. An in vitro experiment to study the bioconversion of the triptolide prodrug compound of the invention was performed. In vitro bioconversion was simulated using alkaline phosphatase (from bovine intestinal mucosa, Type VII-S available from Sigma-Aldrich (St. Louis, Mo.) in glycine buffer (pH 9.8).
(§2) The first order degradation constant was calculated by fitting the remaining concentration versus the incubation time. The degradation half-life (t½) of compound 1 was determined to be 2 minutes.

The subject of the next series is alkaline phosphatase. The series is described as above. The series is classed as in vitro ADME, bovine. The following applies: bovine. Here is the method:
as §1, §2

Another series deals with SkChA-1 cells. Kind of series: Subcutaneous mouse model of cholangiocarcinoma. Format: in vivo, mice. As to conditions: 0.3 mg/kg i.p. BID for 25 days; FIG. 17. Here is the method: SkChA-1 cells (5×10^5) were suspended in matrigel and injected subcutaneously into the left flank of 4-6 week old female nude mice. Seven days post-cell implantation, mice were injected intraperitoneally with 0.3 mg/kg of compound 1 BID for 25 days. Treatment was stopped at this point, and mice sacrificed. Tumor samples, if any, were harvested from these mice, and tumor weight and volume measured. If tumor burden exceeded University of Minnesota animal care guidelines, mice were sacrificed and their tumors harvested at an earlier time point. Control mice were injected with saline BID.

The subject of series [3] is S2013, a highly metastatic pancreatic cancer cell line. Kind of series: Orthotopic mouse model of pancreatic cancer (21 day dosing study). Format: in vivo, mice. As to conditions: 0.42 mg/kg i.p. for 21 d; FIG. 16. Here is the method: 1×10^6 Cells of S2013, a highly metastatic pancreatic cancer cell line, were suspended in matrigel and injected into the tail of the pancreas of 4-6 week old female nude mice. Seven days post-cell implantation, mice were injected intraperitoneally with 0.42 mg/kg of compound 1 for 21 d. Treatment was stopped after 21 d, and mice sacrificed. Tumor samples, if any, were harvested from these mice, and tumor weight and volume measured. If tumor burden exceeded University of Minnesota animal care guidelines, mice were sacrificed and their tumors harvested at an earlier time point. Control mice were injected with saline QD.

Another series concerns MIA PaCa-2 cells. Kind of series: Orthotopic mouse model of pancreatic cancer (60 day dosing study). The series is classed as in vivo, mice. As to conditions: i.p. 60 d, compound 1 0.1-0.9 mg/kg; for survival versus vehicle: triptolide 0.2 mg/kg QD, observed another 28 d, FIG. 13, 14. Here is the method: MIA PaCa-2 cells (1×10^6) were suspended in matrigel and injected into the tail of the pancreas of 4-6 week old female nude mice. Ten days post-cell implantation, mice were injected intraperitoneally with indicated concentrations of compound 1 (0.1, 0.15, 0.3, 0.6 or 0.9 mg/kg) or 0.2 mg/kg Triptolide QD for 60 d. Control mice were injected with saline BID. […] Tumor samples, if any, were harvested from these mice, and tumor weight and volume measured. If tumor burden exceeded University of Minnesota animal care guidelines, mice were sacrificed at earlier time points and their tumors harvested.

The subject of series [4] is Pancreatic cancer cells (MiaPaca-2, Panc-1, S2VP10). Briefly: Comparative in vitro cell viability (Dojindo Cell Counting Kit-8). The following applies: 50 to 200 nmol/L, 24 and 48 hours; prodrug with alkaline phosphatase; FIG. 4-6. On the technique in general: Tetrazolium assays rely on reduction of a dye to a coloured formazan, in cell work by metabolically active cells.

A further series concerns Neuroblastoma N2a. Kind of series: Neuroblastoma cell killing. The series is classed as cell-based. The procedure:
(§3) Neuroblastoma N2a and SKNSH cells were treated with triptolide, resulting in dose- and time-dependent cell killing in N2a, with more than 50% of cells killed with 62.5 nM triptolide at 24 hours and nearly 85% of cells killed with 250 nM triptolide at 48 hours (FIG. 19). To confirm the hypothesis that triptolide results in neuroblastoma cell death via an apoptotic pathway, caspase-3 activity was measured as a marker of apoptosis. In both cell lines, increases in caspase activity with higher doses of triptolide and longer duration of therapy.

A further series relates to Neuroblastoma N2 cells. Kind of series: Orthotopic mouse model of neuroblastoma. The series is classed as in vivo. As to conditions: 0.4 mg/kg i.p. for 21 days, A/J immunocompetent mice; FIG. 18. Here is the method: Neuroblastoma N2 cells (1×10^6) were suspended in matrigel and injected into the left retroperitoneal space of 4-6 week old A/J immunocompetent mice. Three days post-cell implantation, mice were injected with 0.4 mg/kg of triptolide intraperitoneally for 21 days. Treatment was stopped at this point, and mice sacrificed. Tumor samples, if any, were harvested from these mice, and tumor weight and volume measured. If tumor burden exceeded University of Minnesota animal care guidelines, mice were sacrificed and their tumors harvested at an earlier time point. Control mice were injected with DMSO for 21 days.

The next series deals with caspase-3. Briefly: Caspase-3 activity in neuroblastoma cells. The series is classed as cell-based. The following applies: N2a and SKNSH cells; FIG. 20. Here is the method: as §3
The mark [5] stands for this setting: triptolide 0.2 mg/kg, compound 1 0.28 mg/kg.
The mark [6] stands for this setting: pH 9.8, Alkaline Phosphatase, 37° C., read-out: Enzymatic Hydrolysis (t½), Alkaline Phosphatase, 37° C.

Structures can show the parent of a compound that is named as a salt. Where two headings read alike, the source gives them in different places.

For the compound `CC(C)[C@]12O[C@H]1[C@@H]1O[C@]13[C@]1(O[C@H]1C[C@H]1C4=C(CC[C@@]13C)C(=O)OC4)[C@@H]2OCOP(=O)(O)O` [Compound 1, 14-O-Phosphonooxymethyltriptolide Disodium Salt], the “degradation after 1 month” value in series [1] was “no degradation”. Moreover, in the series on MiaPaca-2 cells (0.28 mg/kg compound 1), the “pancreatic tumor growth inhibition vs untreated control” value is given as “considerable pancreatic tumor growth inhibition”. In the series with MiaPaca-2 cells (setting [5]), the “impact on body weight” value is on record as “no apparent significant impact”. Further, in the series with MiaPaca-2 cells (setting [5]), the signs of toxicity entry was “no apparent signs of toxicity”. The “tumor volume vs untreated control” value in the series on MiaPaca-2 cells (setting [5]) is recorded as “significantly reduced”. Also, in series [2], the “time period in which the majority of conversion to triptolide took place” value is no more than 10 min. Besides, the half-life in the series on alkaline phosphatase (alkaline phosphatase in glycine buffer (pH 9.8), first order fit, read-out: degradation half-life (t½)) stood at 2 min. For the same compound, the “tumor burden (tumor volume or tumor weight) versus control” value (with SkChA-1 cells; in series [3]; in the series on MIA PaCa-2 cells (FIG. 15)) was “decreased tumor burden” each time. The survival versus vehicle result in the series with MIA PaCa-2 cells is listed as “enhanced survival”. Further, the pancreatic cell viability result in series [4] is recorded as “significantly reduced”.

For `CC(O[C@@H]1[C@@]2(C(C)C)O[C@H]2[C@@H]2O[C@]23[C@]12O[C@H]2C[C@H]1C2=C(CC[C@@]13C)C(=O)OC2)OP(=O)(O)O` (stereo partly drawn) [Example 3, 14-O-Phosphonooxyethyltriptolide Disodium Salt], the half-life in the series with alkaline phosphatase (setting [6]) turned out to be 9 min.

In the case of `CCC(O[C@@H]1[C@@]2(C(C)C)O[C@H]2[C@@H]2O[C@]23[C@]12O[C@H]2C[C@H]1C2=C(CC[C@@]13C)C(=O)OC2)OP(=O)(O)O` (stereo partly drawn) [Example 4, 14-O-Phosphonooxypropyltriptolide Disodium Salt], the half-life in the series on alkaline phosphatase (setting [6]) turned out to be 17 min.

For `CC(C)[C@]12O[C@H]1[C@@H]1O[C@]13[C@]1(O[C@H]1C[C@H]1C4=C(CC[C@@]13C)C(=O)OC4)[C@@H]2O` [triptolide], the cells killed entry with Neuroblastoma N2a (62.5 nM, 24 hours) was “more than 50%”; with Neuroblastoma N2a (250 nM, 48 hours) it was roughly 85%. Besides, the “tumor burden (tumor volume and tumor mass) versus control” value in the series on Neuroblastoma N2 cells is listed as “decreased tumor burden”. Further, the caspase-3 activity levels entry in the series with caspase-3 was “dose- and time-dependent increases”. Further, in the series with MiaPaca-2 cells (setting [5]), the “tumor volume vs untreated control” value was “significantly reduced”. In the series on MIA PaCa-2 cells, the survival versus vehicle result was “enhanced survival”. Also, the pancreatic cell viability entry in [4] is given as “significantly reduced”.

Source of the values: patent publication US10183033B2, “Triptolide prodrugs” (priority 2009, dated 2019).
